Assay results taken from patent publication US8841233B2, “Herbicidal compositions comprising 4-amino-3-chloro-5-fluoro-6-(4-chloro-2-fluoro-3-methoxyphenyl) pyridine-2-carboxylic acid or a derivative thereof and 4-hydroxyphenyl-pyruvate dioxygenase (HPPD) inhibitors” (Dow Agrosciences LLC, priority 2012, dated 2014).

What was measured:
[1] = tested on: SCPMA; test: In-water applied weed control, transplanted paddy rice, greenhouse (Example II); assay type: in vivo
Description: (§1) Evaluation of in-Water Applied Herbicidal Mixtures for Weed Control in Transplanted Paddy Rice
(§2) Weed seeds or nutlets of the desired test plant species were planted in puddled soil (mud) prepared by mixing a shredded, non-sterilized mineral soil (50.5 percent silt, 25.5 percent clay, and 24 percent sand, with a pH of about 7.6 and an organic matter content of about 2.9 percent) and water at a 1:1 volumetric ratio. The prepared mud was dispensed in 365 mL aliquots into 16-ounce (oz.) non-perforated plastic pots with a surface area of 86.59 square centimeters (cm^2) leaving a headspace of 3 centimeters (cm) in each pot. Mud was allowed to dry overnight prior to planting or transplanting. Rice seeds were planted in Sun Gro MetroMix® 306 planting mixture, which typically has a pH of 6.0 to 6.8 and an organic matter content of about 30 percent, in plastic plug trays. Seedlings at the second or third leaf stage of growth were transplanted into 840 mL of mud contained in 32-oz. non-perforated plastic pots with a surface area of 86.59 cm^2 4 days prior to herbicide application. The paddy was created by filling the headspace of the pots with 2.5 to 3 cm of water. When required to ensure good germination and healthy plants, a fungicide treatment and/or other chemical or physical treatment was applied. The plants were grown for 4-22 days in a greenhouse with an approximate 14 h photoperiod which was maintained at about 29′C during the day and 26° C. during the night. Nutrients were added as Osmocote® (19:6:12, N:P:K+ minor nutrients) at 2 g per 16-oz. pot and 4 g per 32-oz. pot. Water was added on a regular basis to maintain the paddy flood, and supplemental lighting was provided with overhead metal halide 1000-Watt lamps as necessary. The plants were employed for testing when they reached the first through fourth true leaf stage.
(§3) Treatments consisted of the acid or esters of 4-amino-3-chloro-5-fluoro-6-(4-chloro-2-fluoro-3-methoxy-phenyl)pyridine-2-carboxylic acid (compound A) each formulated as an SC (suspension concentrate) and various herbicidal components alone and in combination. Forms of compound A were applied on an acid equivalent basis.
(§4) Other herbicidal components were applied on an active ingredient basis and included 4-hydroxyphenyl pyruvate dioxygenase (HPPD)-inhibiting herbicides mesotrione formulated as Callisto®, sulcotrione formulated as Mikado®, pyrazolynate formulated as Sunbird® 10% GR, and benzobicyclon formulated as Benzobicyclon 3.5% or technical material.
(§5) Treatment requirements for each compound or herbicidal component were calculated based upon the rates being tested, the concentration of active ingredient or acid equivalent in the formulation, an application volume of 2 mL per component per pot, and an application area of 86.59 cm^2 per pot.
(§6) For formulated compounds, a measured amount was placed in an individual 100 or 200 mL glass vial and was dissolved in a volume of 1.25% (v/v) Agri-Dex® crop oil concentrate to obtain application solutions.
(§7) For technical grade compounds, a weighed amount was placed in an individual 100 to 200 mL glass vial and was dissolved in a volume of acetone to obtain concentrated stock solutions. […] The concentrated stock solutions obtained were diluted with an equivalent volume of an aqueous mixture containing 2.5% (v/v) crop oil concentrate so that the final application solutions contained 1.25% (v/v) crop oil concentrate.
(§8) Applications were made by injecting with a pipetter appropriate amounts of the application solutions, individually and sequentially, into the aqueous layer of the paddy. Control plants were treated in the same manner with the solvent blank. Applications were made so that all treated plant material received the same concentrations of acetone and crop oil concentrate.
(§9) The treated plants and control plants were placed in a greenhouse as described above and water was added as needed to maintain a paddy flood. […]

[2] = tested on: ECHCG; test: as above; assay type: in vivo, Echinochloa crusgalli (L.) Beauv.; conditions: for Visual Weed Control (%) - 22 DAA ECHCG Obs: Benzobicyclon (3.5%)
Description: as §1, §2, §3, §4, §5, §6, §7, §8, §9

[3] = tested on: CYPRO; test: as above; assay type: in vivo, Cyperus rotundus L.
Description: as §1, §2, §3, §4, §5, §6, §7, §8, §9

[4] = tested on: ECHOR; test: as above; assay type: in vivo, Echinochloa oryzoides (Ard.) Fritsch
Description: as §1, §2, §3, §4, §5, §6, §7, §8, §9

[5] = tested on: ECHCG; test: Post-emergence foliar-applied weed control, greenhouse (Example I); assay type: in vivo, Echinochloa crusgalli (L.) Beauv.
Excerpt: (§10) Evaluation of Post-emergence Foliar-Applied Herbicidal Mixtures for Weed Control in Direct Seeded Rice
(§11) Seeds or nutlets of the desired test plant species were planted in a soil matrix prepared by mixing a loam or sandy loam soil (e.g., 28.6 percent silt, 18.8 percent clay, and 52.6 percent sand, with a pH of about 5.8 and an organic matter content of about 1.8 percent) and calcareous grit in an 80 to 20 ratio. The soil matrix was contained in plastic pots with a volume of 1 quart and a surface area of 83.6 square centimeters (cm^2). When required to ensure good germination and healthy plants, a fungicide treatment and/or other chemical or physical treatment was applied. The plants were grown for 8-22 days in a greenhouse with an approximate 14 h photoperiod which was maintained at about 29° C. during the day and 26° C. during the night. Nutrients (Peters Excel® 15-5-15 5-Ca 2-Mg and iron chelate) were applied in the irrigation solution as needed and water was added on a regular basis. Supplemental lighting was provided with overhead metal halide 1000-Watt lamps as necessary. The plants were employed for testing when they reached the first through fourth true leaf stage.
as §3, with “(Compound A),” for “(compound A)”, “concentrate),” for “concentrate)”, “Compound” for “compound”
as §4, with “3.5%.” for “3.5% or technical material.”
(§12) Treatment requirements were calculated based upon the rates being tested, the concentration of active ingredient or acid equivalent in the formulation, and a 12 mL application volume at a rate of 187 L/ha.
(§13) For treatments comprised of formulated compounds, measured amounts of compounds were placed individually in 25 mL glass vials and diluted in a volume of 1.25% (v/v) Agri-Dex® crop oil concentrated to obtain 12× stock solutions. […] Application solutions were prepared by adding an appropriate amount of each stock solution (e.g., 1 mL) and diluted to the appropriate final concentrations with the addition of 10 mL of an aqueous mixture of 1.25% (v/v) crop oil concentrate so that the final spray solutions contained 1.25+/−0.05% (v/v) crop oil concentrate.
(§14) For treatments comprised of formulated and technical compounds, weighed amounts of the technical materials were placed individually in 25 mL glass vials and dissolved in a volume of 97:3 v/v acetone/DMSO to obtain 12× stock solutions, and measured amounts of the formulated compounds were placed individually in 25 mL glass vials and diluted in a volume of 1.5% (v/v) crop oil concentrate or water to obtain 12× stock solutions. […] Application solutions were prepared by adding an appropriate amount of each stock solution (e.g., 1 mL) and diluted to the appropriate final concentrations with the addition of an appropriate amount of an aqueous mixture of 1.5% (v/v) crop oil concentrate so that the final spray solutions contained 1.25% (v/v) crop oil concentrate. As required, additional water and/or 97:3 v/v acetone/DMSO was added to individual application solutions so that the final acetone and DMSO concentrations of the application solutions being compared were 8.1% and 0.25%, respectively.
(§15) All stock solutions and applications solutions were visually inspected for compound compatibility prior to application. Spray solutions were applied to the plant material with an overhead Mandel track sprayer equipped with a 8002E nozzles calibrated to deliver 187 L/ha over an application area of 0.503 m^2 at a spray height of 18 to 20 inches (46 to 50 cm) above average plant canopy height. […]

[6] = tested on: CYPIR; test: as above; assay type: in vivo, Cyperus iria L.
Excerpt: as §10, §11
as §3, with “(Compound A),” for “(compound A)”, “concentrate),” for “concentrate)”, “Compound” for “compound”
as §4, with “3.5%.” for “3.5% or technical material.”
as §12, §13, §14, §15

[7] = tested on: SCPJU; test: as above; assay type: in vivo, Schoenoplectus juncoides (Roxb.) Palla
Excerpt: as §10, §11
as §3, with “(Compound A),” for “(compound A)”, “concentrate),” for “concentrate)”, “Compound” for “compound”
as §4, with “3.5%.” for “3.5% or technical material.”
as §12, §13, §14, §15

[8] = tested on: ECHCO; test: as above; assay type: in vivo, Echinochloa colona (L.) Link
Excerpt: as §10, §11
as §3, with “(Compound A),” for “(compound A)”, “concentrate),” for “concentrate)”, “Compound” for “compound”
as §4, with “3.5%.” for “3.5% or technical material.”
as §12, §13, §14, §15

[9] = tested on: BRAPP; test: as above; assay type: in vivo
Excerpt: as §10, §11
as §3, with “(Compound A),” for “(compound A)”, “concentrate),” for “concentrate)”, “Compound” for “compound”
as §4, with “3.5%.” for “3.5% or technical material.”
as §12, §13, §14, §15

[10] = tested on: DIGSA; test: as above; assay type: in vivo, Digitaria sanguinalis (L.) Scop.; conditions: 37.5 gai/ha
Excerpt: as §10, §11
as §3, with “(Compound A),” for “(compound A)”, “concentrate),” for “concentrate)”, “Compound” for “compound”
as §4, with “3.5%.” for “3.5% or technical material.”
as §12, §13, §14, §15

[11] = tested on: IPOHE; test: as above; assay type: in vivo, Ipomoea hederacea Jacq.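 As to Visual Weed Control (%) - 20 DAA IPOHE Obs: visual score 0 no injury to 100 complete kill versus untreated plants.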
Excerpt: as §10, §11
as §3, with “(Compound A),” for “(compound A)”, “concentrate),” for “concentrate)”, “Compound” for “compound”
as §4, with “3.5%.” for “3.5% or technical material.”
as §12, §13, §14, §15

[12] = 100 gae/ha, Benzobicyclon (technical)
[13] = 100 gai/ha, Benzobicyclon (3.5%)
[14] = 200 gai/ha, Benzobicyclon (3.5%)
[15] = 50 gai/ha, Benzobicyclon (technical)

SMILES: CS(=O)(=O)c1ccc(C(=O)C2=C(Sc3ccccc3)C3CCC(C3)C2=O)c(Cl)c1 (stereo not shown) [Benzobicyclon, 3-(2-chloro-4-mesylbenzoyl)-2-phenylthiobicyclo[3.2.1]oct-2-en-4-one, reference compound]
- Visual Weed Control (%) - 21 DAA SCPMA Obs [1, 12]: 80%
- Visual Weed Control (%) - 21 DAA SCPMA Obs [1, 13]: 70%
- Visual Weed Control (%) - 21 DAA SCPMA Obs [1, 14]: 93%
- Visual Weed Control (%) - 22 DAA ECHCG Obs ([2]; 100 gai/ha): 30%
- Visual Weed Control (%) - 22 DAA ECHCG Obs ([2]; 200 gai/ha): 45%
- Visual Weed Control (%) - 22 DAA CYPRO Obs [3, 15]: 10%
- Visual Weed Control (%) - 22 DAA CYPRO Obs [3, 13]: 30%
- Visual Weed Control (%) - 22 DAA CYPRO Obs [3, 14]: 45%
- Visual Weed Control (%) - 22 DAA ECHOR Obs [4, 15]: 50%
- Visual Weed Control (%) - 21 DAA ECHOR Obs [4, 12]: 30%
- Visual Weed Control (%) - 22 DAA ECHCG Obs ([5]; 50 gai/ha): 0%
- Visual Weed Control (%) - 22 DAA ECHCG Obs ([5]; 100 gai/ha): 20%
- Visual Weed Control (%) - 22 DAA ECHCG Obs ([5]; 200 gai/ha): 15%
- Visual Weed Control (%) - 22 DAA CYPIR Obs ([6]; 100 gai/ha): 0%
- Visual Weed Control (%) - 22 DAA CYPIR Obs ([6]; 200 gai/ha): 0%
- Visual Weed Control (%) - 22 DAA SCPJU Obs ([7]; 50 gai/ha): 50%
- Visual Weed Control (%) - 22 DAA SCPJU Obs ([7]; 100 gai/ha): 60%
- Visual Weed Control (%) - 22 DAA SCPJU Obs ([7]; 200 gai/ha): 70%
- Visual Weed Control (%) - 22 DAA ECHCO Obs ([8]; 50 gai/ha): 10%
- Visual Weed Control (%) - 22 DAA ECHCO Obs ([8]; 100 gai/ha): 10%
- Visual Weed Control (%) - 22 DAA ECHCO Obs ([8]; 200 gai/ha): 85%

SMILES: CS(=O)(=O)c1ccc(C(=O)C2C(=O)CCCC2=O)c(Cl)c1 [Sulcotrione, 2-[2-chloro-4-(methylsulfonyl)benzoyl]-1,3-cyclohexanedione, reference compound]
- Visual Weed Control (%) - 20 DAA BRAPP Obs ([9]; 37.5 gai/ha): 0%
- Visual Weed Control (%) - 20 DAA BRAPP Obs ([9]; 75 gai/ha): 20%
- Visual Weed Control (%) - 20 DAA BRAPP Obs ([9]; 150 gai/ha): 60%
- Visual Weed Control (%) - 20 DAA DIGSA Obs [10]: 25%
- Visual Weed Control (%) - 20 DAA ECHCG Obs ([2]; 22.5 gai/ha): 0%
- Visual Weed Control (%) - 20 DAA ECHOR Obs ([4]; 22.5 gai/ha): 10%
- Visual Weed Control (%) - 20 DAA ECHCG Obs ([5]; 37.5 gai/ha): 0%
- Visual Weed Control (%) - 20 DAA ECHCG Obs ([5]; 75 gai/ha): 20%
- Visual Weed Control (%) - 20 DAA ECHCG Obs ([5]; 150 gai/ha): 95%
- Visual Control (%) - 20 DAA IPOHE Obs ([11]; 37.5 gai/ha): 20%
- Visual Weed Control (%) - 20 DAA IPOHE Obs ([11]; 37.5 gai/ha): 20%
- Visual Weed Control (%) - 20 DAA IPOHE Obs ([11]; 75 gai/ha): 30%
- Visual Weed Control (%) - 20 DAA IPOHE Obs ([11]; 150 gai/ha): 80%
- Visual Weed Control (%) - 20 DAA ECHCO Obs ([8]; 37.5 gai/ha): 15%
- Visual Weed Control (%) - 20 DAA ECHCO Obs ([8]; 75 gai/ha): 35%
- Visual Weed Control (%) - 20 DAA ECHCO Obs ([8]; 150 gai/ha): 95%
